The results in this text go back to patent publication US20240252456A1, “ORAL COMPOSITION, SKIN COSMETIC AND HAIR COSMETIC” (MARUZEN PHARMACEUTICALS CO., LTD., priority 2021, published 2024).

For this experiment, the system named is tyrosinase. Description: Tyrosinase activity inhibitory action test. In kind it is biochemical. Here is the method:
In a 48-well plate, 0.2 mL of McIlvaine buffer solution (pH 6.8), 0.06 mL of 0.3 mg/mL tyrosine solution, and 0.18 mL of the test sample (Sample 3, see Table 4 below for final concentration) dissolved in 25% DMSO solution were added, and they were statically placed at 37° C. for 10 minutes. To this, 0.02 mL of 1000 units/mL tyrosinase solution was added, followed by reaction at 37° C. for 15 minutes. After the reaction was completed, the absorbance at a wavelength of 475 nm was measured. As a blank, the same operation and absorbance measurement were performed in the case in which no enzyme solution was added. Furthermore, as a control, the same measurement was performed in the case in which 25% DMSO solution was added without adding the sample solution. From the obtained measurement results, the tyrosinase activity inhibition rate (%) was calculated using the following equation. [formula] Terms in the equation represent the following respective ones. • A: Absorbance at wavelength 475 nm with test sample addition and enzyme addition • B: Absorbance at wavelength 475 nm with test sample addition and without enzyme addition • C: Absorbance at wavelength 475 nm without sample addition and with enzyme addition • D: Absorbance at wavelength 475 nm without sample addition and without enzyme addition

Turning to `O=C(O)CCc1ccccc1` [Sample 3, 3-phenylpropionic acid], the “Tyrosinase activity inhibition rate” value was determined as 4.4% (125 μmol/L), 9.6% (250 μmol/L), 15.2% (500 μmol/L) and 22.8% (1000 μmol/L).
